According to patent publication US20080145313A1, “Compositions and Methods for the Treatment and Prevention of Neoplastic Disorders” (Genesis Research & Development Corporation Limited, priority 2006, published 2008):

How the values were obtained:
[1] = test system: target transcript mRNA in A549 cells; assay: Level of mRNA of target transcript in A549 cells by quantitative RT-PCR (Tables 12 and 13); type: cell-based, human; conditions: 24 h post-transfection
Method in brief: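 A549 cells were transfected with siRNA at 0.1, 1.0 and 10 nM. RNA was extracted 24 h later, reverse-transcribed with random primers, and target mRNA quantified by SYBR Green qRT-PCR. Values were normalised to housekeeping genes HPRT and Lamin.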

[2] = test system: A549 cells; assay: Growth inhibition of siRNA-transfected A549 cells, SYBR Green I DNA content; type: cell-based, human; conditions: 10 nM siRNA, DNA content 96 hours after transfection; for Growth Inhibition in A549 cells by 10 nM siRNA: transporter gene targets
Method in brief: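 A549 cells reverse-transfected with 10 nM Stealth siRNAs via Lipofectamine RNAiMAX, seeded at 5×10^3 cells/cm^2 in RPMI 1640/10% FCS; non-specific siRNA control. DNA content read 96 h post-transfection by SYBR Green I fluorescence (ex 485/em 535 nm) after freeze-thaw and Triton X-100 lysis; mean of three wells.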

Substance: SEQ ID NO: 4954: siRNA targeting ATP6V1B2 (chain 1 TTTGGATTTCTTTACCAAACCAGCC; chain 2 UUUGGAUUUCUUUACCAAACCAGCC; chemistry not given here; one strand in two spellings)
- mRNA knockdown of transporter gene target transcript, 0.1 nM ([1]; 0.1 nM siRNA): + (50-70% mRNA knockdown)
- mRNA knockdown of transporter gene target transcript, 1 nM ([1]; 1 nM siRNA): + (50-70% mRNA knockdown)
- Growth Inhibition in A549 cells by 10 nM siRNA [2]: − (no growth inhibition)

Substance: SEQ ID NO: 4902: siRNA targeting SLC7A5 (LAT1) (chain 1 AAAGAGGCCGCTGTATAATGCCAGC; chain 2 AAAGAGGCCGCUGUAUAAUGCCAGC; Antisense strand given in DNA and RNA notation, chemistry not given here; one strand in two spellings)
- mRNA knockdown of transporter gene target transcript, 0.1 nM ([1]; 0.1 nM siRNA): ++ (70-90% mRNA knockdown)
- mRNA knockdown of transporter gene target transcript, 1 nM ([1]; 1 nM siRNA): ++ (70-90% mRNA knockdown)
- Growth Inhibition in A549 cells by 10 nM siRNA [2]: + (inhibits by at least 50%)

Substance: SEQ ID NO: 4890: siRNA targeting SLC1A5 (ASCT2) (chain 1 TTTACGAAGTCCAAGGACTGCTGGC; chain 2 UUUACGAAGUCCAAGGACUGCUGGC; Antisense strand given in DNA and RNA notation, chemistry not given here; one strand in two spellings)
- mRNA knockdown of transporter gene target transcript, 0.1 nM ([1]; 0.1 nM siRNA): ++ (70-90% mRNA knockdown)
- mRNA knockdown of transporter gene target transcript, 1 nM ([1]; 1 nM siRNA): ++ (70-90% mRNA knockdown)
- Growth Inhibition in A549 cells by 10 nM siRNA [2]: − (no growth inhibition)

Substance: SEQ ID NO: 4903: siRNA targeting SLC7A5 (LAT1) (chain 1 ACGAAATTCAAGTAATTCCATCCTC; chain 2 ACGAAAUUCAAGUAAUUCCAUCCUC; Antisense strand given in DNA and RNA notation, chemistry not given here; one strand in two spellings)
- mRNA knockdown of transporter gene target transcript, 0.1 nM ([1]; 0.1 nM siRNA): ++ (70-90% mRNA knockdown)
- mRNA knockdown of transporter gene target transcript, 1 nM ([1]; 1 nM siRNA): +++ (>90% mRNA knockdown)
- Growth Inhibition in A549 cells by 10 nM siRNA [2]: − (no growth inhibition)

Substance: SEQ ID NO: 4906: siRNA targeting SLC7A11 (xCT) (chain 1 TAATGAGAAATTTCCCAGTAGCCGC; chain 2 UAAUGAGAAAUUUCCCAGUAGCCGC; Antisense strand given in DNA and RNA notation, chemistry not given here; one strand in two spellings)
- mRNA knockdown of transporter gene target transcript, 0.1 nM ([1]; 0.1 nM siRNA): + (50-70% mRNA knockdown)
- mRNA knockdown of transporter gene target transcript, 1 nM ([1]; 1 nM siRNA): ++ (70-90% mRNA knockdown)
- Growth Inhibition in A549 cells by 10 nM siRNA [2]: − (no growth inhibition)

Substance: SEQ ID NO: 4913: siRNA targeting SLC19A2 (ThTr1) (chain 1 AATACAAGGAGACGGTCTGGCTTGG; chain 2 AAUACAAGGAGACGGUCUGGCUUGG; Antisense strand given in DNA and RNA notation, chemistry not given here; one strand in two spellings)
- mRNA knockdown of transporter gene target transcript, 0.1 nM ([1]; 0.1 nM siRNA): ++ (70-90% mRNA knockdown)
- mRNA knockdown of transporter gene target transcript, 1 nM ([1]; 1 nM siRNA): ++ (70-90% mRNA knockdown)
- Growth Inhibition in A549 cells by 10 nM siRNA [2]: − (no growth inhibition)

Substance: SEQ ID NO: 5308: Stealth siRNA targeting RRM2 (chain 1 TTATACATCTGCCAGATATCATGGT; chain 2 UUAUACAUCUGCCAGAUAUCAUGGU; Stealth siRNA, chemical pattern not given here; one strand in two spellings)
- mRNA knockdown of energy and metabolism gene target transcript, 0.1 nM ([1]; 0.1 nM siRNA): ++ (70-90% mRNA knockdown)
- mRNA knockdown of energy and metabolism gene target transcript, 1 nM ([1]; 1 nM siRNA): ++ (70-90% mRNA knockdown)
- Growth Inhibition in A549 cells [2]: ++ (inhibits by at least 75%)

Substance: SEQ ID NO: 4957: siRNA targeting ATP6V1C1 (chain 1 TAGACCTTGGAACTACCATTTCGGC; chain 2 UAGACCUUGGAACUACCAUUUCGGC; chemistry not given here; one strand in two spellings)
- mRNA knockdown of transporter gene target transcript, 0.1 nM ([1]; 0.1 nM siRNA): ++ (70-90% mRNA knockdown)
- mRNA knockdown of transporter gene target transcript, 1 nM ([1]; 1 nM siRNA): ++ (70-90% mRNA knockdown)
- Growth Inhibition in A549 cells by 10 nM siRNA [2]: − (no growth inhibition)

Substance: SEQ ID NO: 4960: siRNA targeting ATP6V1E1 (chain 1 TGGCATTTGCACCAAACAAGGCTCC; chain 2 UGGCAUUUGCACCAAACAAGGCUCC; chemistry not given here; one strand in two spellings)
- mRNA knockdown of transporter gene target transcript, 0.1 nM ([1]; 0.1 nM siRNA): − (<50% mRNA knockdown)
- mRNA knockdown of transporter gene target transcript, 1 nM ([1]; 1 nM siRNA): + (50-70% mRNA knockdown)
- Growth Inhibition in A549 cells by 10 nM siRNA [2]: − (no growth inhibition)

Substance: SEQ ID NO: 4936: siRNA targeting SLC29A2 (ENT2) (chain 1 AAGATCCAGGGTCAGAGCTACTTTC; chain 2 AAGAUCCAGGGUCAGAGCUACUUUC; chemistry not given here; one strand in two spellings)
- mRNA knockdown of transporter gene target transcript, 0.1 nM ([1]; 0.1 nM siRNA): − (<50% mRNA knockdown)
- mRNA knockdown of transporter gene target transcript, 1 nM ([1]; 1 nM siRNA): − (<50% mRNA knockdown)
- Growth Inhibition in A549 cells by 10 nM siRNA [2]: − (no growth inhibition)

Substance: SEQ ID NO: 4956: siRNA targeting ATP6V1C1 (chain 1 TAGACTTCTAGTTAGCAAACTTCCT; chain 2 UAGACUUCUAGUUAGCAAACUUCCU; chemistry not given here; one strand in two spellings)
- mRNA knockdown of transporter gene target transcript, 0.1 nM ([1]; 0.1 nM siRNA): ++ (70-90% mRNA knockdown)
- mRNA knockdown of transporter gene target transcript, 1 nM ([1]; 1 nM siRNA): ++ (70-90% mRNA knockdown)
- Growth Inhibition in A549 cells by 10 nM siRNA [2]: − (no growth inhibition)

Substance: SEQ ID NO: 4922: siRNA targeting SLC16A1 (MCT1) (chain 1 ATAGGTAGTGGATAAAGGTGCTAGC; chain 2 AUAGGUAGUGGAUAAAGGUGCUAGC; chemistry not given here; one strand in two spellings)
- mRNA knockdown of transporter gene target transcript, 0.1 nM ([1]; 0.1 nM siRNA): + (50-70% mRNA knockdown)
- mRNA knockdown of transporter gene target transcript, 1 nM ([1]; 1 nM siRNA): ++ (70-90% mRNA knockdown)
- mRNA knockdown of transporter gene target transcript, 10 nM ([1]; 10 nM siRNA): +++ (>90% mRNA knockdown)
- Growth Inhibition in A549 cells by 10 nM siRNA [2]: + (inhibits by at least 50%)

Substance: SEQ ID NO: 4970: siRNA targeting ABCC4 (MRP4) (chain 1 AATCTTGGAAATCTCCTTCTTTCTC; chain 2 AAUCUUGGAAAUCUCCUUCUUUCUC; chemistry not given here; one strand in two spellings)
- mRNA knockdown of transporter gene target transcript, 0.1 nM ([1]; 0.1 nM siRNA): ++ (70-90% mRNA knockdown)
- mRNA knockdown of transporter gene target transcript, 1 nM ([1]; 1 nM siRNA): ++ (70-90% mRNA knockdown)
- Growth Inhibition in A549 cells by 10 nM siRNA [2]: − (no growth inhibition)

Substance: SEQ ID NO: 4911: siRNA targeting SLC5A6 (SMVT1) (chain 1 AATGACGGAGCATAGAGCACAACTC; chain 2 AAUGACGGAGCAUAGAGCACAACUC; Antisense strand given in DNA and RNA notation, chemistry not given here; one strand in two spellings)
- mRNA knockdown of transporter gene target transcript, 0.1 nM ([1]; 0.1 nM siRNA): ++ (70-90% mRNA knockdown)
- mRNA knockdown of transporter gene target transcript, 1 nM ([1]; 1 nM siRNA): ++ (70-90% mRNA knockdown)
- Growth Inhibition in A549 cells by 10 nM siRNA [2]: − (no growth inhibition)

Substance: SEQ ID NO: 4925: siRNA targeting SLC25A1 (CIC) (chain 1 TAATCACATCCAGAGGAGTGTTTCC; chain 2 UAAUCACAUCCAGAGGAGUGUUUCC; chemistry not given here; one strand in two spellings)
- mRNA knockdown of transporter gene target transcript, 0.1 nM ([1]; 0.1 nM siRNA): ++ (70-90% mRNA knockdown)
- mRNA knockdown of transporter gene target transcript, 1 nM ([1]; 1 nM siRNA): ++ (70-90% mRNA knockdown)
- Growth Inhibition in A549 cells by 10 nM siRNA [2]: − (no growth inhibition)

Substance: SEQ ID NO: 4920: siRNA targeting SLC9A1 (NHE1) (chain 1 TCAGGTAGTTGTTGATCTTCTGCTC; chain 2 UCAGGUAGUUGUUGAUCUUCUGCUC; chemistry not given here; one strand in two spellings)
- mRNA knockdown of transporter gene target transcript, 0.1 nM ([1]; 0.1 nM siRNA): ++ (70-90% mRNA knockdown)
- mRNA knockdown of transporter gene target transcript, 1 nM ([1]; 1 nM siRNA): ++ (70-90% mRNA knockdown)
- Growth Inhibition in A549 cells by 10 nM siRNA [2]: − (no growth inhibition)

Substance: SEQ ID NO: 4963: siRNA targeting ATP6V1F (chain 1 TAGCGCAGGTCTTCGGCAGTGAACA; chain 2 UAGCGCAGGUCUUCGGCAGUGAACA; chemistry not given here; one strand in two spellings)
- mRNA knockdown of transporter gene target transcript, 0.1 nM ([1]; 0.1 nM siRNA): ++ (70-90% mRNA knockdown)
- mRNA knockdown of transporter gene target transcript, 1 nM ([1]; 1 nM siRNA): ++ (70-90% mRNA knockdown)
- Growth Inhibition in A549 cells by 10 nM siRNA [2]: − (no growth inhibition)

Substance: SEQ ID NO: 4947: siRNA targeting ATP2B4 (PMCA4) (chain 1 ATTACGCACAGCCTGATAATCCTGC; chain 2 AUUACGCACAGCCUGAUAAUCCUGC; chemistry not given here; one strand in two spellings)
- mRNA knockdown of transporter gene target transcript, 0.1 nM ([1]; 0.1 nM siRNA): ++ (70-90% mRNA knockdown)
- mRNA knockdown of transporter gene target transcript, 1 nM ([1]; 1 nM siRNA): ++ (70-90% mRNA knockdown)
- Growth Inhibition in A549 cells by 10 nM siRNA [2]: − (no growth inhibition)
